{"source": "patent US20260102501A1", "about": "“ANTI-CANCER NUCLEAR HORMONE RECEPTOR-TARGETING COMPOUNDS” (Nuvation Bio Inc., priority 2022, published 2026)", "key": {"[1]": {"target": "T1, full-length androgen receptor (HEK293 cells stably expressing) (Homo sapiens, UniProt P10275)", "T1 sequence (P10275 1-920)": "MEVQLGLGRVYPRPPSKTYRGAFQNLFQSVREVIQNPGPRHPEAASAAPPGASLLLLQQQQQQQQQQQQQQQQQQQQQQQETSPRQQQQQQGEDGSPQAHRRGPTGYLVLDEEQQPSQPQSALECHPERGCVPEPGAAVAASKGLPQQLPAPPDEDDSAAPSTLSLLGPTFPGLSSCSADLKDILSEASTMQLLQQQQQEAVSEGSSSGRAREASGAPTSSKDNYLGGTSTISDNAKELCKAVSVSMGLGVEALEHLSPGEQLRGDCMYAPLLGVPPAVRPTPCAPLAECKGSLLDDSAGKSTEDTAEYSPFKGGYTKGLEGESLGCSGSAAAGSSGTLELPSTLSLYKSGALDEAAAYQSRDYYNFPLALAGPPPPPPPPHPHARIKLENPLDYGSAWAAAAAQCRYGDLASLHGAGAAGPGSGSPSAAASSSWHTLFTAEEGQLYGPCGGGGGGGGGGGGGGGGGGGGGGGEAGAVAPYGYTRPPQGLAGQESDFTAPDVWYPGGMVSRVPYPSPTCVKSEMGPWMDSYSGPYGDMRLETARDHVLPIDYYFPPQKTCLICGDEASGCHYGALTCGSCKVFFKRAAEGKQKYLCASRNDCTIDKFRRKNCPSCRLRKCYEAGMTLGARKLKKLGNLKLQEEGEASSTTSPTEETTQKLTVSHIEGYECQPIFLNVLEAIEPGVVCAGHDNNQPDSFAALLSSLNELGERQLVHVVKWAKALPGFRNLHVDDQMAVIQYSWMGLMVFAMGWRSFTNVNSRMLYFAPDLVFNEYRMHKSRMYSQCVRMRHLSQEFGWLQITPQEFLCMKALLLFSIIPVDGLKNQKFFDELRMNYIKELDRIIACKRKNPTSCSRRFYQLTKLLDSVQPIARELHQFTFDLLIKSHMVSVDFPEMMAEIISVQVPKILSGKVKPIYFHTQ", "test": "AR antagonism assay (luciferase reporter)"}, "IEC6 cells": {"tested_on": "IEC6 cells", "test": "Cell viability assay (CellTiterGlo)", "details": "Rattus norvegicus, IEC-6, 144 h, read-out: IEC-6 (IC50, nM)"}, "[2]": {"target": "T2, Progesterone PR-B receptors from human breast carcinoma T47D cells (Homo sapiens, UniProt P06401)", "T2 sequence (P06401 1-933)": "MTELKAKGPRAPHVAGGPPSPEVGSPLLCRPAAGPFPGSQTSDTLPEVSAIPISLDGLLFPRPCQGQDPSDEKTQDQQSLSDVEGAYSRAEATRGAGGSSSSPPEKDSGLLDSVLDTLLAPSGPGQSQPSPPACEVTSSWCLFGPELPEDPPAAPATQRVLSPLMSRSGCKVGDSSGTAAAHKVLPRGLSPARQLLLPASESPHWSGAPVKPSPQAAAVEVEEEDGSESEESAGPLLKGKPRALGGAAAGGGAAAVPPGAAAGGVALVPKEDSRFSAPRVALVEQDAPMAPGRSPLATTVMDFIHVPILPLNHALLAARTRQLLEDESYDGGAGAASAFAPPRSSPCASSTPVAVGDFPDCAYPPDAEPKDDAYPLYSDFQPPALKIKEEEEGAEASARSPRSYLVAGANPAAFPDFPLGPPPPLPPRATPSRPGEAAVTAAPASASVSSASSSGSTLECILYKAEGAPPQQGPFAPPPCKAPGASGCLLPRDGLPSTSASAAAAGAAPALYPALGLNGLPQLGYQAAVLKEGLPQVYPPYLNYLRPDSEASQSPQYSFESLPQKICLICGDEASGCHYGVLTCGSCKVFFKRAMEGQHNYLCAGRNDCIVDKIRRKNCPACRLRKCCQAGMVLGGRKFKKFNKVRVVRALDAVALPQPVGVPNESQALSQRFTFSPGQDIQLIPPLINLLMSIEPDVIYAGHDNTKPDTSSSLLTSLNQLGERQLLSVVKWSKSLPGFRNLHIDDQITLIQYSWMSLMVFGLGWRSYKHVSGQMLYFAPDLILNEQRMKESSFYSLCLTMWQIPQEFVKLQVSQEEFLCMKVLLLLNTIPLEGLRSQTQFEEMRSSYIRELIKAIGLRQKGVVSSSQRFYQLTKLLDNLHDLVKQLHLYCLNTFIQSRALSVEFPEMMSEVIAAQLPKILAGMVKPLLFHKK", "test": "PR binding assay ([3H] Progesterone displacement)"}, "22Rv1 cells": {"tested_on": "22Rv1 cells", "test": "Cell viability assay (CellTiterGlo)", "details": "Homo sapiens, 22Rv1, 144 h, read-out: 22RV1 (IC50, nM)"}, "T47D cells": {"tested_on": "T47D cells", "test": "Cell viability assay (CellTiterGlo)", "type": "cell-based", "details": "Homo sapiens, 144 h, 6 days incubation, CellTiterGlo, read-out: T47D (IC50)"}, "[3]": {"target": "T3, Progesterone Receptor (PR)-LBD and coactivator peptide (Homo sapiens, UniProt P06401)", "T3 sequence (P06401 679-913 limits assumed)": "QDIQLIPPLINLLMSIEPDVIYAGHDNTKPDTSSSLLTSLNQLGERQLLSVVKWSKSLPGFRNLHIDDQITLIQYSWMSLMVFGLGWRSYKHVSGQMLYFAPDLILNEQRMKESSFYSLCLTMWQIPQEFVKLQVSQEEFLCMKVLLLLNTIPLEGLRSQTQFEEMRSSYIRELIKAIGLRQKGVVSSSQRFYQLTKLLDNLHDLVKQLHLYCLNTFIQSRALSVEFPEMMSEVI", "test": "PR coactivator antagonist assay", "details": "2.5 nM PR-LBD, 10 nM progesterone-induced fluorescence response"}}, "note": "Structures can show the parent of a compound that is named as a salt."}
{"molecule": "CC[C@@]1(O)C(=O)OCc2c1cc1n(c2=O)Cc2cc3c(CN4CCN(C(=O)C5CCN(c6ccc(C(=O)N[C@H]7CC[C@H](Oc8ccc(C#N)c(Cl)c8C)CC7)nn6)CC5)CC4)c(OC(=O)N4C[C@H](C)N(C)C[C@H]4C)ccc3nc2-1", "note": "[Compound 30, (S)-10-((4-(1-(6-(((1r,4r)-4-(3-Chloro-4-cyano-2-methylphenoxy)cyclohexyl)carbamoyl)-pyridazin-3-yl)piperidine-4-carbonyl)piperazin-1-yl)methyl)-4-ethyl-4-hydroxy-3,14-dioxo-3,4,12,14-tetrahydro-1H-pyrano[3′,4′:6,7]indolizino[1,2-b]quinolin-9-yl (2R,5S)-2,4,5-trimethylpiperazine-1-carboxylate Formate]", "values": [{"measurement": "IC50", "setting": "[1]", "value": "> 1000", "unit": "nM"}, {"measurement": "IC50", "setting": "IEC6 cells", "value": "> 1000", "unit": "nM"}, {"measurement": "IC50", "setting": "[2]", "value": "< 10", "unit": "nM"}, {"measurement": "IC50", "setting": "22Rv1 cells", "value": "101 to 1000", "unit": "nM"}]}
{"molecule": "CC[C@@]1(O)C(=O)OCc2c1cc1n(c2=O)Cc2cc3c(CN(C)C)c(OC(=O)N4CCN(CC5CCN(c6ccc(C(=O)N[C@H]7CC[C@H](Oc8ccc(C#N)c(Cl)c8C)CC7)nn6)CC5)CC4)ccc3nc2-1", "note": "[Compound 31, (S)-10-((Dimethylamino)methyl)-4-ethyl-4-hydroxy-3,14-dioxo-3,4,12,14-tetrahydro-1H-pyrano[3′,4′:6,7]indolizino[1,2-b]quinolin-9-yl 4-((1-(6-(((1r,4r)-4-(3-chloro-4-cyano-2-methylphenoxy)cyclohexyl)carbamoyl)pyridazin-3-yl)piperidin-4-yl)methyl)piperazine-1-carboxylate Formate]", "values": [{"measurement": "IC50", "setting": "[1]", "value": "> 1000", "unit": "nM"}, {"measurement": "IC50", "setting": "IEC6 cells", "value": "101 to 1000", "unit": "nM"}, {"measurement": "IC50", "setting": "[2]", "value": "< 10", "unit": "nM"}, {"measurement": "IC50", "setting": "22Rv1 cells", "value": "101 to 1000", "unit": "nM"}]}
{"molecule": "CC[C@@]1(O)C(=O)OCc2c1cc1n(c2=O)Cc2cc3c(CN4CCN(CCCCCCN(C)c5ccc([C@H]6C[C@@]7(C)[C@@H](CC[C@]7(OC(C)=O)C(C)=O)[C@@H]7CCC8=CC(=O)CCC8=C76)cc5)CC4)c(O)ccc3nc2-1", "note": "[Compound 36, (8S,11R,13S,14S,17R)-17-acetyl-11-(4-((6-(4-(((S)-4-ethyl-4,9-dihydroxy-3,14-dioxo-3,4,12,14-tetrahydro-1H-pyrano[3′,4′:6,7]indolizino[1,2-b]quinolin-10-yl)methyl)piperazin-1-yl)hexyl)(methyl)amino)phenyl)-13-methyl-3-oxo-2,3,6,7,8,11,12,13,14,15,16,17-dodecahydro-1H-cyclopenta[a]phenanthren-17-yl acetate]", "values": [{"measurement": "IC50", "setting": "T47D cells", "value": "10 to 100", "unit": "nM"}, {"measurement": "IC50", "setting": "[1]", "value": "101 to 1000", "unit": "nM"}, {"measurement": "IC50", "setting": "IEC6 cells", "value": "101 to 1000", "unit": "nM"}, {"measurement": "IC50", "setting": "[2]", "value": "< 10", "unit": "nM"}]}
{"molecule": "CC[C@@]1(O)C(=O)OCc2c1cc1n(c2=O)Cc2c-1nc1cc(F)c(C)c3c1c2[C@@H](N(C)C(=O)COCC1CCN(CCCCCCCN(C)c2ccc([C@H]4C[C@@]5(C)[C@@H](CC[C@]5(OC(C)=O)C(C)=O)[C@@H]5CCC6=CC(=O)CCC6=C54)cc2)CC1)CC3", "note": "[Compound 55, (8S,11R,13S,14S,17R)-17-acetyl-11-(4-((7-(4-((2-(((1S,9S)-9-ethyl-5-fluoro-9-hydroxy-4-methyl-10,13-dioxo-2,3,9,10,13,15-hexahydro-1H,12H-benzo[de]pyrano[3′,4′:6,7]indolizino[1,2-b]quinolin-1-yl)(methyl)amino)-2-oxoethoxy)methyl)piperidin-1-yl)heptyl)(methyl)amino)phenyl)-13-methyl-3-oxo-2,3,6,7,8,11,12,13,14,15,16,17-dodecahydro-1H-cyclopenta[a]phenanthren-17-yl acetate]", "values": [{"measurement": "IC50", "setting": "T47D cells", "value": "101 to 1000", "unit": "nM"}, {"measurement": "IC50", "setting": "[1]", "value": "101 to 1000", "unit": "nM"}, {"measurement": "IC50", "setting": "IEC6 cells", "value": "> 1000", "unit": "nM"}, {"measurement": "IC50", "setting": "[2]", "value": "< 10", "unit": "nM"}]}
{"molecule": "CC[C@@]1(O)C(=O)OCc2c1cc1n(c2=O)Cc2cc3c(CN(C)C)c(OCC4CCN(C(=O)CN(C)c5ccc([C@H]6C[C@@]7(C)[C@@H](CC[C@]7(OC(C)=O)C(C)=O)[C@@H]7CCC8=CC(=O)CCC8=C76)cc5)CC4)ccc3nc2-1", "note": "[Compound No. 19, (8S,11R,13S,14S,17R)-17-Acetyl-11-(4-((2-(4-((((S)-10-((dimethylamino)methyl)-4-ethyl-4-hydroxy-3,14-dioxo-3,4,12,14-tetrahydro-1H-pyrano[3′,4′:6,7]indolizino[1,2-b]quinolin-9-yl)oxy)methyl)-piperidin-1-yl)-2-oxoethyl)(methyl)amino)phenyl)-13-methyl-3-oxo-2,3,6,7,8,11,12,13,14,15,16,17-dodeca-hydro-1H-cyclopenta[a]phenanthren-17-yl acetate]", "values": [{"measurement": "IC50", "setting": "T47D cells", "value": "101 to 1000", "unit": "nM"}, {"measurement": "IC50", "setting": "[1]", "value": "> 1000", "unit": "nM"}, {"measurement": "PR antagonism", "setting": "[3]", "value": "a (IC50 =< 10 nM)"}, {"measurement": "IC50", "setting": "IEC6 cells", "value": "> 1000", "unit": "nM"}, {"measurement": "IC50", "setting": "[2]", "value": "< 10", "unit": "nM"}]}
{"molecule": "CC[C@@]1(O)C(=O)OCc2c1cc1n(c2=O)Cc2c-1nc1cc(F)c(C)c3c1c2[C@@H](NC(=O)COCCCCCCN(C)c1ccc([C@H]2C[C@@]4(C)[C@@H](CC[C@]4(OC(C)=O)C(C)=O)[C@@H]4CCC5=CC(=O)CCC5=C42)cc1)CC3", "note": "[Compound No. 47, (8S,11R,13S,14S,17R)-17-acetyl-11-(4-((6-(2-(((1S,9S)-9-ethyl-5-fluoro-9-hydroxy-4-methyl-10,13-dioxo-2,3,9,10,13,15-hexahydro-1H,12H-benzo[de]pyrano [3′,4′:6,7]indolizino[1,2-b]quinolin-1-yl)amino)-2-oxoethoxy)hexyl)(methyl)amino)phenyl)-13-methyl-3-oxo-2,3,6,7,8,11,12,13,14,15,16,17-dodecahydro-1H-cyclopenta[a]phenanthren-17-yl acetate]", "values": [{"measurement": "IC50", "setting": "T47D cells", "value": "10 to 100", "unit": "nM"}, {"measurement": "IC50", "setting": "[1]", "value": "10 to 100", "unit": "nM"}, {"measurement": "IC50", "setting": "IEC6 cells", "value": "101 to 1000", "unit": "nM"}, {"measurement": "IC50", "setting": "[2]", "value": "< 10", "unit": "nM"}]}
{"molecule": "CC[C@@]1(O)C(=O)OCc2c1cc1n(c2=O)Cc2c-1nc1cc(F)c(C)c3c1c2[C@@H](NCC1CCN(CC2CCN(C(=O)CN(C)c4ccc([C@H]5C[C@@]6(C)[C@@H](CC[C@]6(OC(C)=O)C(C)=O)[C@@H]6CCC7=CC(=O)CCC7=C65)cc4)CC2)CC1)CC3", "note": "[Compound No. 51, (8S,11R,13S,14S,17R)-17-acetyl-11-(4-((2-(4-((4-((((1S,9S)-9-ethyl-5-fluoro-9-hydroxy-4-methyl-10,13-dioxo-2,3,9,10,13,15-hexahydro-1H,12H-benzo[de]pyrano[3′,4′:6,7]indolizino[1,2-b]quinolin-1-yl)amino)methyl)piperidin-1-yl)methyl)piperidin-1-yl)-2-oxoethyl)(methyl)amino)phenyl)-13-methyl-3-oxo-2,3,6,7,8,11,12,13,14,15,16,17-dodecahydro-1H-cyclopenta[a]phenanthren-17-yl acetate]", "values": [{"measurement": "IC50", "setting": "[1]", "value": "10 to 100", "unit": "nM"}, {"measurement": "IC50", "setting": "IEC6 cells", "value": "101 to 1000", "unit": "nM"}, {"measurement": "IC50", "setting": "[2]", "value": "< 10", "unit": "nM"}, {"measurement": "IC50", "setting": "22Rv1 cells", "value": "10 to 100", "unit": "nM"}]}
